Measured values taken from PubChem BioAssay AID248 (DTP/NCI, 2004).
Toxic doses and inconclusive results are not listed. No stated cut-off is given here; in the data, active means T/C of 150% or more; inactive means T/C below 125%.

Tested on: L1210 leukemia ip in BDF1 mice, survival T/C
Test: NCI In Vivo Anticancer Drug Screen. Data for tumor model L1210 Leukemia (intraperitoneal) in B6D2F1 (BDF1) mice
Conditions: endpoint: mean survival time, higher = longer survival
In short: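 Tumor cells were implanted, animals were treated, and survival was followed. The result divides the treated measurement by the vehicle-control measurement.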

[1] = dose: 100.0 mg/kg/injection, schedule: Q04DX003 (ip), vehicle: saline with Tween-80
[2] = dose: 100.0 mg/kg/injection, schedule: Q04DX003 (ip), vehicle: Klucel (hydroxypropylcellulose) (HPC)
[3] = dose: 200.0 mg/kg/injection, schedule: Q04DX003 (ip), vehicle: Klucel (hydroxypropylcellulose) (HPC)
[4] = dose: 400.0 mg/kg/injection, schedule: Q04DX003 (ip), vehicle: Klucel (hydroxypropylcellulose) (HPC)
[5] = dose: 100.0 mg/kg/injection, schedule: Q01DX001 (ip), vehicle: saline
[6] = dose: 200.0 mg/kg/injection, schedule: Q01DX001 (ip), vehicle: saline
[7] = dose: 400.0 mg/kg/injection, schedule: Q01DX001 (ip), vehicle: saline
[8] = dose: 100.0 mg/kg/injection, schedule: Q01DX009 (ip), vehicle: Klucel (hydroxypropylcellulose) (HPC)
[9] = dose: 200.0 mg/kg/injection, schedule: Q01DX009 (ip), vehicle: Klucel (hydroxypropylcellulose) (HPC)
[10] = dose: 400.0 mg/kg/injection, schedule: Q01DX009 (ip), vehicle: Klucel (hydroxypropylcellulose) (HPC)

Measured: T/C

S=P(S)(c1ccccc1)c1ccccc1
inactive: [1] 91 % of control | dose: 200.0 mg/kg/injection, schedule: Q04DX003 (ip), vehicle: saline with Tween-80 94 % of control | dose: 400.0 mg/kg/injection, schedule: Q04DX003 (ip), vehicle: saline with Tween-80 100 % of control

Cc1cccc2c1C1c3ccccc3C(=O)CC1CC2=O (configuration not stated)
inactive: [2] 98 % of control | [3] 97 % of control | [4] 93 % of control

Nc1nc(SCc2ccccn2)c2ncn(C3OC(CO)C(O)C3O)c2n1 (configuration not stated)
inactive: dose: 6.25 mg/kg/injection, schedule: Q01DX Z (ip), vehicle: methylcellulose (MC) 106 % of control | dose: 12.5 mg/kg/injection, schedule: Q01DX Z (ip), vehicle: methylcellulose (MC) 104 % of control | dose: 25.0 mg/kg/injection, schedule: Q01DX Z (ip), vehicle: methylcellulose (MC) 112 % of control

NC1=NN(c2c(Cl)cc(Cl)cc2Cl)C(=O)C1
inactive: [5] 96 % of control | [6] 94 % of control | [7] 100 % of control

CCCCCCCCCCN1CCN2C(=O)N(CC)CCC2C1 (configuration not stated)
inactive: dose: 25.0 mg/kg/injection, schedule: Q04DX003 (ip), vehicle: saline with Tween-80 94 % of control | dose: 50.0 mg/kg/injection, schedule: Q04DX003 (ip), vehicle: saline with Tween-80 105 % of control | dose: 100.0 mg/kg/injection, schedule: Q01DX001 (ip), vehicle: saline with Tween-80 96 % of control | [1] 94 % of control

COc1ccc(OC)c2c1CCCC2=O
inactive: dose: 50.0 mg/kg/injection, schedule: Q01DX001 (ip), vehicle: saline 96 % of control | [5] 99 % of control | [6] 91 % of control | [7] 96 % of control

CC(C)(C)NN
inactive: dose: 5.0 mg/kg/injection, schedule: Q01DX001 (ip), vehicle: saline 102 % of control | dose: 10.0 mg/kg/injection, schedule: Q01DX001 (ip), vehicle: saline 104 % of control | dose: 20.0 mg/kg/injection, schedule: Q01DX001 (ip), vehicle: saline 98 % of control | dose: 40.0 mg/kg/injection, schedule: Q01DX001 (ip), vehicle: saline 94 % of control | dose: 80.0 mg/kg/injection, schedule: Q01DX001 (ip), vehicle: saline 96 % of control | [5] 101 % of control

CC(C)N(C(=O)Nc1cccc(C(F)(F)F)c1)c1ccccc1
inactive: [8] 106 % of control | [9] 104 % of control | [10] 87 % of control

CC(C)C1=CC23CCC4C(C)(C(=O)O)CCCC4(C)C2CC1C1C(=O)OC(=O)C13 (configuration not stated)
inactive: dose: 25.0 mg/kg/injection, schedule: Q01DX009 (ip), vehicle: Klucel (hydroxypropylcellulose) (HPC) 106 % of control | dose: 25.0 mg/kg/injection, schedule: Q04DX003 (ip), vehicle: Klucel (hydroxypropylcellulose) (HPC) 103 % of control | dose: 50.0 mg/kg/injection, schedule: Q01DX009 (ip), vehicle: Klucel (hydroxypropylcellulose) (HPC) 102 % of control | dose: 50.0 mg/kg/injection, schedule: Q04DX003 (ip), vehicle: Klucel (hydroxypropylcellulose) (HPC) 101 % of control | [8] 102 % of control | [2] 95 % of control | [9] 91 % of control

CC(=O)OCC(OC(C)=O)C(OC(C)=O)C(OC(C)=O)C(O)CO (configuration not stated)
inactive: dose: 100.0 mg/kg/injection, schedule: Q04DX003 (ip), vehicle: saline 96 % of control | dose: 200.0 mg/kg/injection, schedule: Q04DX003 (ip), vehicle: saline 96 % of control | dose: 400.0 mg/kg/injection, schedule: Q04DX003 (ip), vehicle: saline 96 % of control

CCCCCCC(C)N(C)CCOC(=O)c1ccc([N+](=O)[O-])cc1 (configuration not stated)
inactive: dose: 75.0 mg/kg/injection, schedule: Q01DX001 (ip), vehicle: other 101 % of control | dose: 150.0 mg/kg/injection, schedule: Q01DX001 (ip), vehicle: other 106 % of control

CNC(=O)Nc1ccc(OC)cc1OC
inactive: [8] 105 % of control | [2] 106 % of control | [9] 94 % of control | [3] 111 % of control | [10] 98 % of control | [4] 103 % of control

O=C1NC(=S)S/C1=C\c1ccncc1
inactive: dose: 50.0 mg/kg/injection, schedule: Q01DX001 (ip), vehicle: carboxymethylcellulose (CMC) 94 % of control | dose: 100.0 mg/kg/injection, schedule: Q01DX001 (ip), vehicle: carboxymethylcellulose (CMC) 89 % of control | dose: 200.0 mg/kg/injection, schedule: Q01DX001 (ip), vehicle: carboxymethylcellulose (CMC) 92 % of control | dose: 400.0 mg/kg/injection, schedule: Q01DX001 (ip), vehicle: carboxymethylcellulose (CMC) 99 % of control

CCOC/C=C\c1ccccc1
inactive: dose: 50.0 mg/kg/injection, schedule: Q01DX009 (ip), vehicle: saline with Tween-80 95 % of control | dose: 100.0 mg/kg/injection, schedule: Q01DX009 (ip), vehicle: saline with Tween-80 92 % of control | dose: 200.0 mg/kg/injection, schedule: Q01DX009 (ip), vehicle: saline with Tween-80 92 % of control

NC(N)=NCCCC(N)C(=O)NCCCCCCNC(=O)C(N)CCCN=C(N)N (configuration not stated)
inactive: dose: 10.0 mg/kg/injection, schedule: Q01DX Z (ip), vehicle: saline 97 % of control | dose: 30.0 mg/kg/injection, schedule: Q01DX Z (ip), vehicle: saline 108 % of control | dose: 100.0 mg/kg/injection, schedule: Q01DX Z (ip), vehicle: saline 90 % of control
